From ChEMBL document CHEMBL3507680, “University of Dundee, Gates Library screen for HepG2 cell viability”

Experiment: Human HepG2 cell viability assay in 384 well format
Assay type: toxicity, cell-based
Set-up: dose 125 nL, time 70.5 hour; cytotoxicity at 70.5 h: concentration not given beside the values
Conditions: HepG2 cells, read-out: Inhibition

Compound	cytotoxicity at 70.5 h [%]
CCc1nnc2n1CCN(C(=O)CCOc1cc(C)ccc1C)C2	-5.39
Cc1nc(C(=O)N(CC2CCCO2)c2ccncc2)cs1 (stereo not given)	-16.6
CC1CCCN(C(=O)c2ccc(N(C)Cc3cnn(C)c3)nc2)C1 (stereo not given)	20.1
CC1CN(c2ccc(NC(=O)Cn3cccn3)cc2)CCO1 (stereo not given)	-5.08
CC(C)c1n[nH]c(C2CN(C(=O)COCC(F)(F)F)CCO2)n1 (stereo not given)	-12.9
COc1ccc(CCCC(=O)NCc2c(C)noc2C)cc1F	20
O=C(NCCNC(=O)c1ccc(Cl)cc1)NCCn1cccc1	-4.35
Cc1c(CN2CCCC(C(=O)Nc3ccccc3)C2)cc(C#N)n1C (stereo not given)	-2.58
CCOc1cc(CNCC2CN(C3CC3)CCO2)ccc1OC (stereo not given)	-8.19
COc1ccc(CNCC2CN(C3CC3)CCO2)cc1F (stereo not given)	-8.08
CN(C)C1CCCN(C(=O)NCCc2cc(F)ccc2F)C1 (stereo not given)	23.5
CC(CC(=O)N1CCCN(Cc2nccn2C)CC1)n1cccc1 (stereo not given)	-12.4
N#Cc1cccnc1N1CCC(OCc2ccccc2)CC1	-8.71
Cc1ccc(CCC(=O)N2CCn3c(nnc3C(C)C)C2)cc1Cl	24.9
Cn1cnnc1C1CCN(C(=O)CCCOCc2ccccc2)CC1	-11.3
CC(C)c1n[nH]c(C2CN(C(=O)COc3ccc(F)cc3)CCO2)n1 (stereo not given)	-8.14
Cc1ccc(C)c(S(=O)(=O)CCN2CCCC2Cn2cncn2)c1 (stereo not given)	-14.3
CCc1nc(CN2CCCC(N(C)CCn3cncn3)C2)no1 (stereo not given)	-9.76
CCc1nc(CN2CCCC(NCCn3cncn3)C2)no1 (stereo not given)	-8.1
O=C(CNC(=O)c1ccoc1)NCCOc1ccc2c(c1)CCC2	-6.52
Cc1cc(N2CCc3c(ncn3C3CC3)C2)nc(N)n1	-7.99
Cc1c(Cl)cccc1NC(=O)CCNc1ccc(C#N)cn1	-6.94
OC(CN1CCN(CC2CC2)CC1)c1ccc(Br)cc1 (stereo not given)	-2.6
CS(=O)(=O)NC1CCN(C(=O)c2ccc(Br)o2)C1 (stereo not given)	-5.52

Compound	cytotoxicity at 70.5 h [%]
CS(=O)(=O)NC1CCN(C(=O)c2ccc(Br)cc2)C1 (stereo not given)	-7.16
COc1cc(Cl)c(C)cc1NC(=O)CCNc1ccc(C#N)cn1	9.88
Cc1nsc(N2CCN(CC(=O)NCc3cccnc3)CC2)n1	-0.83
O=C(CCc1ccco1)NCC1CCCN1c1cccnn1 (stereo not given)	-2.58
Cn1cnnc1CNC(=O)Nc1ccc(OC2CCC2)c(F)c1	-4.19
CSc1ccc(NC(=O)NCc2nncn2C2CC2)cc1F	2.39
Cc1csc(CCCNC(=O)NC2CC(=O)N(C(C)(C)C)C2)n1 (stereo not given)	-2.05
Cc1nc(C)c(CCNC(=O)NC2CC(=O)N(C(C)(C)C)C2)s1 (stereo not given)	-5.16
O=C(c1ccc2nncn2c1)N1CCCC1c1noc(C2CC2)n1 (stereo not given)	-7.81
c1cnnc(N2CCCC2CNCCc2cccs2)c1 (stereo not given)	-7.61
COC(=O)N1CCC(Nc2cccc(F)c2C(C)=O)C1 (stereo not given)	-9.32
CCC(C)NC(=O)c1ccc(CNC(=O)COC)cc1 (stereo not given)	-9.97
Cc1ccc(C(=O)NCCNC(=O)c2cncnc2C(C)C)cc1F	-7.29
CC(C)(C)OC(=O)NCC1CCN(C(=O)c2ccccc2O)CC1	-7.62
Cc1c(F)cc(C(=O)NCC(F)(F)F)cc1NCC(=O)N(C)C	10.3
COC(=O)CCNC(=O)c1ccc(NC(=O)N(C)CC(C)C)cc1	12.2
CC(C)C(=O)NCc1ccccc1NS(=O)(=O)c1ccccc1	-3.22
COc1ccc(OC)c(C(O)CN2CCN(C3CCCC3)CC2)c1 (stereo not given)	-7.66
COC(=O)C1CN(CC(=O)Nc2cccc(OC)c2)c2ccccc21 (stereo not given)	-9.39
COC(=O)N1CCC(Nc2cccc(F)c2C#N)CC1	-3.28
CC(=O)c1c(F)cccc1NC1CCN(C(=O)CC(C)C)CC1	12.4
Cc1ccc(O)c(C(=O)N2CCC(CNC(=O)OC(C)(C)C)C2)c1 (stereo not given)	-7.45
CN(CCc1ccncc1)Cc1nccn1Cc1ccccc1	8.96
CCCNC(=O)NCc1ccccc1NS(=O)(=O)c1ccccc1	-0.797

Compound	cytotoxicity at 70.5 h [%]
CC(=O)c1c(F)cccc1NC1CCN(S(=O)(=O)C2CC2)CC1	-6.69
O=C(Nc1cnc(C2CC2)nc1)N1CCCC1	-1.33
O=C(Nc1cnc(C2CC2)nc1)N1CCC(CN2CCCC2)C1 (stereo not given)	17.5
CCC(C)(NCC(=O)OC)c1nccs1 (stereo not given)	-2.64
CCC(C)(NCC(N)=O)c1nccs1 (stereo not given)	-4.9
CCNC(=O)NC(=O)CNC(C)(CC)c1nc(C)cs1 (stereo not given)	-4.63
COCc1ccccc1C(=O)N1CCC(CNC(=O)OC(C)(C)C)C1 (stereo not given)	-6.54
CC(C)c1nccn1C1CCCN(C(=O)c2ccc(=O)n(C)n2)C1 (stereo not given)	-8.03
CCNS(=O)(=O)C1CCN(C(=O)c2ccc(CC)o2)C1 (stereo not given)	-9.53
Cc1ccc(CNC(=O)N2CCOCC2C2CC2)cc1F (stereo not given)	-8.34
NC(=O)CN1CCC(NC2CSCCc3ccccc32)CC1 (stereo not given)	5.08
CS(=O)(=O)NCCNC(=O)C1(c2ccc(F)cc2)CC1	-0.0991
O=S(=O)(NCCN1CCOCC1)c1cncc(Cl)c1	4.99
NC(=O)C1CN(c2ccc3c(Cl)ccnc3c2F)CCO1 (stereo not given)	-7.96
COc1ncnc(N)c1CNCCOc1ccccc1Cl	-5.86
C[C@@H]1CN(c2ccc3c(Cl)ccnc3c2F)CC(C(N)=O)O1 (stereo not given in full)	-4.78
CS(=O)(=O)CCOCCNc1ccc(C(F)(F)F)cc1C#N	-3.49
CCOc1cccc(COC(=O)c2ccc(F)cn2)n1	-2.51
CC1CCN(C)c2ccccc2N1C(=O)c1ccn(C)c(=O)c1 (stereo not given)	-6.59
CCc1cc(C)nc(N2CCN(C(C)c3nc(C)no3)CC2)n1 (stereo not given)	-7.01
CN(C)c1ccnc(N2CCC(NCCOc3ccccc3)CC2)n1	19.6
Cc1cccc(C(=O)Nc2cccc3c2CCCC3)n1	-1.46
CCOC(=O)c1nc(CN2CCN(C(C)C(=O)NC3CC3)CC2)cs1 (stereo not given)	-9.09
Cc1ncc2c(n1)CN(C(C(N)=O)c1ccccc1)CC2 (stereo not given)	-7.87

Compound	cytotoxicity at 70.5 h [%]
O=S(=O)(CCCS(=O)(=O)c1ccc2c(c1)OCCCO2)c1ccccc1	-7.8
COc1ccc(F)cc1CSCC(=O)N(CCC#N)CCC#N	-3.2
c1ccc(OCCNC2CCN(c3ncccn3)CC2)cc1	2.01
CS(=O)(=O)CCCNC(=O)NC1CC(c2cccc(Cl)c2)C1 (stereo not given)	-3.19
COCC(=O)NC1CCCN(c2ccc(C)cc2)C1=O (stereo not given)	-0.459
O=C(Nc1ccccc1OC1CCOC1)c1cc[nH]n1 (stereo not given)	16.6
O=S1(=O)CCC(N2CCN(c3cc(C(F)(F)F)ccn3)CC2)C1 (stereo not given)	1.03
COCCN(C(=O)c1c[nH]c2ncccc12)C1CCCC1	0.976
Cc1cnn(-c2cccc(N3CCCCC3)n2)c1	15.7
COC(=O)c1cnc(C(=O)N(c2ccc(OC)c(F)c2)C(C)C)cn1	0.246
Cc1ccc(O)c(C(=O)N2CCCC2c2nncn2CC(C)C)c1 (stereo not given)	-0.402
Cc1ccc(C(=O)Nc2cccc3c2C(=O)NC3)c(C)n1	2.51
CCOCc1ccccc1NC(=O)NCC(C)(O)c1cc(C)oc1C (stereo not given)	-1.67
COc1ccc2cc(CN(C)C(C)c3nc(C4CC4)no3)ccc2c1 (stereo not given)	-0.253
CC(c1nc(C2CC2)no1)N(C)Cc1ccc(Cl)cc1 (stereo not given)	-3.08
CC(c1nc(C2CC2)no1)N(C)Cc1ccc2c(c1)OCCO2 (stereo not given)	-0.549
CC(C)Cn1cnnc1C1CCCN1C(=O)c1ccc(F)cc1F (stereo not given)	-2.82
COc1cc(F)ccc1N(C)Cc1ccccn1	-1.59
CCNC(=O)CN(CC)C(=O)Cc1csc(C(C)C)n1	-1.29
COc1cccc2c1N(Cc1noc(C3CC3)n1)CCC2	39.7
O=C(NCc1ccncc1)N1CCSCC1CCO (stereo not given)	10.5
CC(C)C(NC(=O)c1ccco1)C(=O)N1CCC2(CC1)OCCO2 (stereo not given)	17.8
COc1ccccc1CCNC(=O)NC(C)COCC(F)(F)F (stereo not given)	-5.34
N#Cc1cccc(NC(=O)N2CCCC(N3CCCC3=O)C2)c1 (stereo not given)	0.781

Compound	cytotoxicity at 70.5 h [%]
N#Cc1nccnc1NC1CCN(c2ccccc2Br)C1 (stereo not given)	11.1
Cn1cccc(NC(=O)COc2ccc(Cl)cc2)c1=O	-1.21
COCC(C)NC(=O)NCCc1cccc(OC)c1O (stereo not given)	8.57
N#Cc1nccnc1NCCC1CCN(CC(F)(F)F)CC1	21.7
FC(F)(F)CN1CCC(CCNc2ncccn2)CC1	0.447
FC(F)c1nnc2ccc(N3CCC4(CCCCC4)C3)nn12	-3.87
CC(C)OCCS(=O)(=O)c1ccccc1C#N	11.2
N#Cc1nccnc1NC1CCN(c2c(F)cccc2F)C1 (stereo not given)	-4.72
COc1ccc2c(c1)C(=O)N(C)C1(CCN(C(=O)OC(C)(C)C)CC1)N2	1.71
NS(=O)(=O)CCN1CCOC(c2ccc(Cl)cc2)C1 (stereo not given)	2.97
Cc1ccccc1S(=O)(=O)CCOC(C)C	9.57
CCCS(=O)(=O)CCN1CCOC(c2ccsc2)C1 (stereo not given)	-2.47
CCc1nnc2n1CCN(C(=O)c1ccccc1OCC1CC1)C2	0.159
Cc1c(C(=O)N(C)CC(C)O)sc2nc(C(F)(F)F)ccc12 (stereo not given)	-9.55
CCS(=O)(=O)NCCNC(=O)N(Cc1ccc(C)o1)C(C)C	-13.2
COc1cccc2c1N(Cc1nc3c(cnn3C)c(=O)[nH]1)CCC2	22.2
Cn1ncc2c(=O)[nH]c(CN3CCCc4cc(F)cc(F)c43)nc21	-15.9
CC(=O)N1Cc2ccccc2C[C@H]1C(=O)Nc1ccccn1	-12
CCN(CC)Cc1ccc(C(=O)NC2CCc3cc(Br)ccc32)o1 (stereo not given)	-24.6
CCN(CC(=O)NCc1nc(C2CC2)no1)Cc1ccc(Cl)cc1	-15.6
Cc1cc(C2CCCN(CC(=O)N3CCc4ccccc43)C2)n[nH]1 (stereo not given)	-6.5
Cn1ccnc1CNCCNc1ncc(Cl)cc1Cl	-5.95
CC(C)(N)c1nc(C(F)F)cc(=O)[nH]1	-6.3
Brc1ccc(CNCc2nnc3n2CCCCC3)s1	-16.6
